Experimental data reported in a melting point compilation (Tetko et al.; mined from patent text by program, amines drawn as free bases though some values may be those of a salt).

With NC(=O)NC[C@@H]1CCCc2cc(S(=O)(=O)c3cccc(F)c3)ccc21 the melting point was 155 to 156 °C. O=C(O)c1cc2cc(OCCc3ccccc3)ccc2[nH]1 showed a melting point of 184 to 187 °C. With CC(C)(O)Cn1c(CCC2(C)OCCO2)nc2c(N)nc3ccccc3c21 the melting point was 231 to 233 °C. CC1=NCCn2cccc21 showed a melting point of 25 to 27 °C. ClCCCOc1ccccc1Nc1nc(Cl)nc2[nH]cnc12 gave a melting point of 205 °C. O=CC(Cl)=Cc1cccc(Oc2ccc([N+](=O)[O-])c([N+](=O)[O-])c2)c1 gave a melting point of 100 to 101 °C. COc1cc(C(=O)O)c(OC)c2c1C(C)(C)CCC2(C)C showed a melting point of 187 °C. Work on NC(=O)CNC(=O)c1nccc(-c2cccc3cc(Cc4cccc(C(F)(F)F)c4)sc23)n1 yielded a melting point of 241 to 242 °C. Molecule CC1(C)OCc2c1nc1ccccc1c2NCCCN1CCCC1 has a melting point of 70 to 75 °C. In the case of N=C(NO)c1nn(-c2c(Cl)cc(C(F)(F)F)cc2Cl)c(C=O)c1SC(F)(F)F, the melting point is reported as 72 to 75 °C. In the case of O=C(Nc1cccc2c3c(oc12)CCS(=O)C3)c1c(Cl)cccc1Cl (stereo not given), the melting point is reported as greater than 250 °C. In the case of Nc1cc(F)c(F)c(Cl)c1Cl, the melting point is reported as 94 to 97.5 °C. With Cn1nc(-c2ncc(Cl)cc2F)c(N)c1OC(F)F the melting point was 92 to 94 °C. With COC(=O)CCCNC(=O)CNS(=O)(=O)c1ccc2ccccc2c1 the melting point was 187 to 189 °C. With O=C(O)CCc1conc1-c1ccc(Cl)c(F)c1 the melting point was 148 to 149 °C. Molecule CC1(C)CCC(C)(C)c2cc(-c3ccc4cc(C(=O)O)cc(O)c4c3)ccc21 has a melting point of 299 °C. In the case of CSC1=NC(C)(C)SC1=NO, the melting point is reported as 168 to 171 °C. For Cc1cccc(-c2n[nH]cc2-c2ccc(F)c(-c3ccc[nH]3)c2)n1, the melting point was 141 to 142 °C. With OCCCN1CCN(C2=Nc3ccccc3Cn3c2cc2ccccc23)CC1 the melting point was 174 to 175 °C. Molecule COc1ccccc1NC(=O)Nc1nc(Oc2ccc3ccccc3c2)nc(N(CCC(=O)O)Cc2ccccc2C(F)(F)F)n1 has a melting point of 232 to 233 °C. Molecule N#Cc1ccc(Cn2cncn2)cc1-c1ccc(OS(N)(=O)=O)cc1 has a melting point of 159 to 162 °C. With Cn1ncnc1COc1nc2c(-c3c(F)cccc3F)nncn2c1-c1ccccc1 the melting point was 190 °C. Molecule NC(=S)NN=Cc1c2ccccc2c(C=NNC(N)=S)c2ccccc12 has a melting point of 275 to 277 °C. COC(=O)c1n[nH]c2cc(C(F)(F)F)ccc12 gave a melting point of 240 to 242 °C. With O=C(CBr)Nc1ccc(F)cc1C(=O)c1ccccc1Br the melting point was 110 to 114 °C. Cc1ccc(Nc2ncc(C#N)c(-c3ccc(C(C)(C)N)cc3)n2)cc1F showed a melting point of 209 °C. In the case of CCOC(=O)C(=CNC1CC1)C(=O)c1cc(Cl)c(F)c(Cl)c1F, the melting point is reported as 71 to 74 °C. With CCOC=Nc1ccc2nnc(-c3ncc([N+](=O)[O-])n3C)n2n1 the melting point was 134 to 135 °C. CCOCc1nc2c(N)nc3cc(N4CCCCS4(=O)=O)ccc3c2n1CCCOC(C)C showed a melting point of 172 to 174 °C. In the case of CCCNc1nc(=O)n(C2CC(N=[N+]=[N-])C(COC(C)=O)O2)cc1C (stereo not given), the melting point is reported as 138 to 140 °C. COc1ccc(Cl)cc1C(=O)NCCc1ccc(CC(C)(C)C(=O)O)cc1 gave a melting point of 138 to 141 °C. Molecule CCCN(CCC)Cc1nc(-c2ncn3c2CN(C)C(=O)c2ccccc2-3)no1 has a melting point of 130 to 132 °C. CN1CCN(c2ccc(Cl)nn2)CC1 gave a melting point of 106 to 107 °C. CN1CCC(c2n[nH]c3cc(Cl)ccc23)CC1 showed a melting point of 211 to 213 °C. CCOc1cc(C(C#N)N2C(=O)c3cccc(NC(C)=O)c3C2=O)ccc1OC (stereo not given) gave a melting point of 118 to 120 °C. Molecule CCCCNc1cc(Cl)c(S(C)(=O)=O)cc1C(=O)O has a melting point of 187 to 189 °C. With Clc1ccc(C2(c3ccc4nccc(CCc5ccc(Cl)s5)c4c3)OCCO2)cc1 the melting point was 94 °C. Work on Cc1cc(C(O)(c2ccc3c(cnn3-c3ccc(F)cc3)c2)C(F)(F)F)cn(C)c1=O (stereo not given) yielded a melting point greater than 200 °C. Work on COC(=O)C1=C(C)NN=C(c2ccccc2)C1c1cccc(Cl)c1 (stereo not given) yielded a melting point of 189 °C. Molecule CC(=O)N1CC(CCN(C)C)Cc2ccc(OCc3ccc(-c4ccccc4)cc3)cc21 (stereo not given) has a melting point of 62 to 63.5 °C. For [N-]=[N+]=NC1CCCC2(CCCC2)NC1=O (stereo not given), the melting point was 96 to 99 °C. For COc1ccc(Oc2cccc3ncnc(NC(C)=O)c23)cc1, the melting point was 174 to 175 °C. With O=C(O)c1ccc(-c2c([N+](=O)[O-])oc3ccc(-c4ccccc4)cc23)cc1 the melting point was 235 to 249 °C. With CCC(=O)N=c1sc2cccc(C)c2n1N the melting point was 175 to 176 °C. With O=C(Nc1ccccc1)c1cccc(Nc2cc(Cl)cc(Cl)c2)c1 the melting point was 164 to 165 °C. Molecule COC(=O)c1ccc(C(=O)N2CCN(c3ncccc3NCC(C)C)CC2)nc1 has a melting point of 82 to 84 °C. With COc1cc2ncc(C#N)c(Nc3ccc(O)cc3Cl)c2cc1OC the melting point was greater than 250 °C. In the case of O=C(C1=CNCCS1)c1ccc(F)cc1, the melting point is reported as 212 to 214 °C. CCOC(=O)c1c(C)nc2c(cnn2CCCC#N)c1OCC gave a melting point of 99 °C. In the case of Cc1oc(C=Cc2ccccc2Cl)nc1C(=O)O, the melting point is reported as 223 to 224 °C. In the case of CCC(=Nc1ccc2nc(N3CCN(C)CC3)c(N3CCN(C)CC3)nc2c1)N(C)C, the melting point is reported as 173 to 175 °C. COc1ccc2cc3c(c(-c4ccc(C)cc4)c2c1)CNC3=O showed a melting point of 298 to 301 °C. Work on CCCS(=O)(=O)CC(=O)NNC(=O)N1Cc2ccccc2Oc2ccc(Cl)cc21 yielded a melting point of 173 to 175 °C. In the case of CCOc1cc2c(cc1OCC)C(=C(C#N)SCC(O)CN1CCOCC1)NCC2 (stereo not given), the melting point is reported as 97 °C. COc1ccc2c(C(=O)O)cccc2c1SC(F)(F)F gave a melting point of 204 to 205 °C. With COc1cc(OC)c2ccccc2c1OC(C)=O the melting point was 116 to 117 °C. With CN(C)c1nnc(SCC(=O)C23CC4CC(CC(C4)C2)C3)s1 the melting point was 150 to 151 °C. O=C(CO)c1ccc2ccccc2c1 gave a melting point of 114 to 115 °C. For CC(=NOCCOc1ccc(CC2OC(=O)NC2=O)cc1)c1ccc(-c2ccccc2)cc1 (stereo not given), the melting point was 177 to 179 °C. O=C(CCCN1CCN(c2cccc(Cl)c2Cl)CC1)N1CCc2ccccc21 showed a melting point of 134 to 136 °C. In the case of CC(=O)N[C@@H](Cc1cn(Cc2ccccc2)cn1)C(=O)OCc1ccccc1, the melting point is reported as 113 to 114 °C. COc1c(C(C)(C)C)cc(C(=O)O)cc1C(C)(C)C gave a melting point of 192 to 195 °C. Work on COc1cccc2c(Nc3ccccc3)nc(Cl)nc12 yielded a melting point of 245 to 246 °C. With CCCCCC(=O)Nc1ccc2c(c1)c(Cc1ccc(C(=O)O)cc1OC)cn2CC(=O)O the melting point was 235 to 240 °C. COc1cccc(CN2CC(=O)Nc3ncc(-c4ccc(O)cc4)nc32)c1 showed a melting point of 282 to 283 °C. Molecule O=C1CSc2nc(Nc3ccc(N4CCOCC4)cc3)ncc2N1 has a melting point of 288 to 290 °C. In the case of CC(C)S(=O)(=O)Nc1ccc(Br)cc1, the melting point is reported as 98 to 100 °C. Molecule O=C(c1ccc(Cl)c([N+](=O)[O-])c1)c1ccccn1 has a melting point of 98 to 99 °C. With CNC(Cc1ccc(Cl)cc1[N+](=O)[O-])c1ccsc1C (stereo not given) the melting point was 44 to 46 °C. For CC(C)N(Cc1ccc2cc(NC(=O)c3ccc(-c4ccc(Cl)cc4)nc3)ccc2n1)C(C)C, the melting point was 201 to 203 °C. For COc1cc2c(=O)n(C(C)CN(C)C)c3c4cc5c(cc4ncc3c2cc1OC)OCO5 (stereo not given), the melting point was 186 to 187 °C. With Cc1nc(-c2ccc(Br)cc2)sc1C(=O)N[C@H](C)[C@](O)(Cn1cncn1)c1ccc(F)cc1F the melting point was 165 to 166 °C. With Cc1ccc(F)cc1C(=O)Nc1ccc(C(=O)N2CCC=Cc3sccc32)c(Cl)c1 the melting point was 125 to 132 °C. CC(C)(C)c1cc(SC[Si](C)(C)C)cc(C(C)(C)C)c1O showed a melting point of 100 to 101 °C. Molecule COCOc1cccc(-c2ccc(-c3ccccc3)cc2-c2ccc3c(c2)C(C)(C)CCC3(C)C)c1C(=O)O has a melting point of 103 to 104 °C. Molecule COc1cc2c(cc1OC)CN(c1c(C)c(C)c3c(c1C)C(c1ccc(C)cc1)C(C)(C)O3)C2 (stereo not given) has a melting point of 156 to 159 °C. In the case of O=C(Nc1cccc2c(CBr)c(Br)cnc12)c1c(Cl)cccc1Cl, the melting point is reported as 210 to 213 °C. In the case of COC(=O)c1cccc2c1Nc1cccc(I)c1C2, the melting point is reported as 108 to 110 °C. CC(=O)OCC1OC(n2c(Br)c(C=O)c3cc(Cl)c(Cl)cc32)C(O)C1O (stereo not given) showed a melting point of 159 to 160 °C. Molecule O=CN(O)C(CN1CCOCC1)CS(=O)(=O)c1ccccc1Oc1ccc(OC(F)(F)F)cc1 (stereo not given) has a melting point of 161 to 163 °C. For CCOC(=O)C1=C(COCCNS(=O)(=O)c2ccc(Cl)nc2)NC(C)=C(C(=O)OC)C1c1ccccc1Cl (stereo not given), the melting point was 140 °C. With O=C(NCCO)c1cccc(-c2cccc3nn(Cc4cc(F)cc(Cl)c4)cc23)c1 the melting point was 188 to 189 °C. Work on CC(C)N(CCN1C(=O)/C(=N/NC(=O)NC2CCCCC2)c2ccccc21)C(C)C yielded a melting point of 164 to 166 °C. Work on COc1ccc(C=CCCCCOc2ccc(S(=O)(=O)c3cccc(C(=O)O)c3)cc2CCC(=O)O)cc1 yielded a melting point of 145 to 148 °C. Molecule COc1ccc(C(=O)Nc2nc(-c3ccccc3)c(-c3ccc(=O)n(C(C)C)n3)s2)cc1 has a melting point of 219 to 221 °C. CCOc1cc(-c2nc(N)sc2CCC2CCCCC2)c(OC)cc1C gave a melting point of 96 to 97 °C. Work on CCn1ncc2c(NCc3ccncc3)c3ccccc3nc21 yielded a melting point of 191 to 192 °C. For CC(C)(C)c1cc(C(=O)c2ccccc2C(=O)O)cc(C(C)(C)C)c1O, the melting point was 173 to 174 °C. COc1ccc2cccc(NC(C)=O)c2c1 showed a melting point of 154 to 155 °C. Work on O=C=NC(=O)CS(=O)(=O)c1ccc2ccccc2c1 yielded a melting point of 152 to 155 °C. With CCC(C(=O)O)c1cccc(Oc2ccccc2Cl)c1O (stereo not given) the melting point was 143 to 145 °C. For CCOC(=O)c1cnc(-c2ccccc2OCC(C)C)[nH]c1=O, the melting point was 89 to 91 °C. COC(=O)c1cnc(N2CCN(Cc3ccccc3)CC2)nc1C gave a melting point of 38 to 40 °C. For COc1cc2nc(C(N)=O)sc2cc1OC, the melting point was 211 to 212 °C. Work on Cc1nn(-c2ccc(C#N)c(Cl)c2)c(C)c1Oc1ccc(C(=O)N2CCOCC2)cc1 yielded a melting point of 156 to 157 °C. COc1ccc(C(=O)NCCc2cccc(OCc3ccccc3)c2)cc1OC gave a melting point of 82 to 84 °C. Cc1ccc(C2CC(N)=NN2c2nc3ccccc3s2)cc1 (stereo not given) showed a melting point of 282 to 285 °C. O=C(C(c1ccc(Cl)cc1)c1c(Cl)cc(-n2ncc(=O)[nH]c2=O)cc1Cl)N1CCCC1 (stereo not given) gave a melting point of 154 °C. CC(C(=O)CCc1ccc(OC(F)(F)F)cc1)n1cncn1 (stereo not given) gave a melting point of 58 °C. Work on O=C(Nc1ccc2ccc(-c3cccc(Br)c3)nc2n1)c1ccccc1 yielded a melting point of 204 to 206 °C.
